The record followed here is US12083124B2 (Incyte Corporation, priority 2019, dated 2024).

pIC50: −log10 of the molar value. Like-named read-outs stand apart in the source and are kept apart here.

For assay [1], the target named is wild-type un-phosphorylated FGFR3 (Homo sapiens, UniProt P22607). Put plainly: FGFR Enzymatic Assay (FRET peptide phosphorylation), FGFR3.
Description: The inhibitor potency of the exemplified compounds was determined in an enzyme discontinuous assay that measures peptide phosphorylation using FRET measurements to detect product formation. Inhibitors were serially diluted in DMSO and a volume of 0.2 μL was transferred to the wells of a 384-well plate. […] Appropriate controls (enzyme blank and enzyme with no inhibitor) were included on the plate. […] The 10 μL/well reaction concentration of the peptide substrate was 500 nM whereas the ATP concentration was maintained near or below the ATP Km. The ATP Km values were pre-determined in a separate series of experiments. The reaction plate was incubated at 25° C. for 1 hr and the reactions were ended with the addition of 5 μL/well of quench solution (50 mM Tris, 150 mM NaCl, 0.5 mg/mL BSA, pH 7.8; 45 mM EDTA, 600 nM staurosporin, with Perkin Elmer Lance Reagents at 3.75 nM Eu-antibody PY20 and 180 nM APC-Streptavidin). The plate was allowed to equilibrate for ˜10 minutes at ambient temperature before scanning on a PheraStar plate reader (BMG Labtech) instrument.
Either GraphPad prism or XLfit was used to analyze the data. The IC50 values were derived by fitting the data to a four parameter logistic equation producing a sigmoidal dose-response curve with a variable Hill coefficient. Prism equation: Y=Bottom+(Top-Bottom)/(1+10^((Log IC50-X)*Hill slope)); XLfit equation: Y=(A+((B−A)/(1+((X/C)^D)))) where X is the logarithm of inhibitor concentration and Y is the response.
GraphPad prism3 was used to analyze the data. The IC50 values were derived by fitting the data to the equation for a sigmoidal dose-response with a variable slope. Y=Bottom+(Top-Bottom)/(1+10^((Log IC50-X)*Hill Slope)) where X is the logarithm of concentration and Y is the response.
For assay [2], the target named is wild-type un-phosphorylated FGFR1 (Homo sapiens, UniProt P11362). In words: FGFR Enzymatic Assay (FRET peptide phosphorylation), FGFR1. The note with it: pre-incubated for 4 hours.
Chain of wild-type un-phosphorylated FGFR1 (P11362 22-822): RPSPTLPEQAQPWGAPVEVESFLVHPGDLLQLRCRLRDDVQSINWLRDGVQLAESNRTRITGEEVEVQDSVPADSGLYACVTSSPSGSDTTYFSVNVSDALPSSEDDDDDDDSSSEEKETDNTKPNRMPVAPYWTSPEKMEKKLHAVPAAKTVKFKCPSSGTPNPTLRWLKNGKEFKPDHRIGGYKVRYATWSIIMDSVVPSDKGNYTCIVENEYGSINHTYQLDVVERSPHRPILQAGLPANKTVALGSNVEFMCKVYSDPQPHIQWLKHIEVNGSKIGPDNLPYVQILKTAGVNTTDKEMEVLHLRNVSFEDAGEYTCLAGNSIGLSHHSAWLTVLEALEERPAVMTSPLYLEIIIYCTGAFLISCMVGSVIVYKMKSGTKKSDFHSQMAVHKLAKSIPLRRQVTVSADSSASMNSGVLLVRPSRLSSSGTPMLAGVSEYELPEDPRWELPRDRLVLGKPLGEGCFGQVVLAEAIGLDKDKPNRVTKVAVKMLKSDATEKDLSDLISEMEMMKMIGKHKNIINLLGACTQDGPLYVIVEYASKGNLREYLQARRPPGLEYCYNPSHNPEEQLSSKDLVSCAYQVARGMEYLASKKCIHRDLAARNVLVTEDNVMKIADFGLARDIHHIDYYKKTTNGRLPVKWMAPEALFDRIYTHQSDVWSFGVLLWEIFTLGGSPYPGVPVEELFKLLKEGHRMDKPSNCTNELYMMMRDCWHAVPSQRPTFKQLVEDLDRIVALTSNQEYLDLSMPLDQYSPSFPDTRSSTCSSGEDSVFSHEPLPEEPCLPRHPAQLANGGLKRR
For assay [3], the target named is wild-type un-phosphorylated FGFR4 (Homo sapiens, UniProt P22455). Put plainly: FGFR Enzymatic Assay (FRET peptide phosphorylation), FGFR4.
Chain of wild-type un-phosphorylated FGFR4 (P22455 22-802): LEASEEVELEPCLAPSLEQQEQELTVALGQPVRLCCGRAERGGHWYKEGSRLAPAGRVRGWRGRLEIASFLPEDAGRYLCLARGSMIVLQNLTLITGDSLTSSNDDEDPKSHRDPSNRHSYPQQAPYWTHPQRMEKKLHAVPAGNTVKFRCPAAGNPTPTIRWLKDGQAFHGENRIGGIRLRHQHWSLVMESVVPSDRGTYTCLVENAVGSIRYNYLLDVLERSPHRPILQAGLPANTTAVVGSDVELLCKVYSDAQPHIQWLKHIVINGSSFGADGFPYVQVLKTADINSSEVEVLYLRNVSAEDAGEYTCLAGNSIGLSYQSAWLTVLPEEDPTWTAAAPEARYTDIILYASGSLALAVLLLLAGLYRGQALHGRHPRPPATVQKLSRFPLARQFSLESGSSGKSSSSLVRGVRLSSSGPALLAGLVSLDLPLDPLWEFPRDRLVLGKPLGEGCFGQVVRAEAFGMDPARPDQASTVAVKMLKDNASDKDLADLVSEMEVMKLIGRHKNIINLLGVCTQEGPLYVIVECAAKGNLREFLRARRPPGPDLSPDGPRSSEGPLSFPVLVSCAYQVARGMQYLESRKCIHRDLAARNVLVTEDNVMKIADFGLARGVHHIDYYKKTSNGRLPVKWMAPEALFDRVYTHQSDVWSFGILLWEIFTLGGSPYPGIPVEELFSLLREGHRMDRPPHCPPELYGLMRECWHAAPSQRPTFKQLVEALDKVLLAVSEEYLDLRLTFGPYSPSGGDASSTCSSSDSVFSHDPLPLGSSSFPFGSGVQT
The target in assay [4] is wild-type un-phosphorylated FGFR2 (Homo sapiens, UniProt P21802). Put plainly: FGFR Enzymatic Assay (FRET peptide phosphorylation), FGFR2.
Chain of wild-type un-phosphorylated FGFR2 (P21802 22-821): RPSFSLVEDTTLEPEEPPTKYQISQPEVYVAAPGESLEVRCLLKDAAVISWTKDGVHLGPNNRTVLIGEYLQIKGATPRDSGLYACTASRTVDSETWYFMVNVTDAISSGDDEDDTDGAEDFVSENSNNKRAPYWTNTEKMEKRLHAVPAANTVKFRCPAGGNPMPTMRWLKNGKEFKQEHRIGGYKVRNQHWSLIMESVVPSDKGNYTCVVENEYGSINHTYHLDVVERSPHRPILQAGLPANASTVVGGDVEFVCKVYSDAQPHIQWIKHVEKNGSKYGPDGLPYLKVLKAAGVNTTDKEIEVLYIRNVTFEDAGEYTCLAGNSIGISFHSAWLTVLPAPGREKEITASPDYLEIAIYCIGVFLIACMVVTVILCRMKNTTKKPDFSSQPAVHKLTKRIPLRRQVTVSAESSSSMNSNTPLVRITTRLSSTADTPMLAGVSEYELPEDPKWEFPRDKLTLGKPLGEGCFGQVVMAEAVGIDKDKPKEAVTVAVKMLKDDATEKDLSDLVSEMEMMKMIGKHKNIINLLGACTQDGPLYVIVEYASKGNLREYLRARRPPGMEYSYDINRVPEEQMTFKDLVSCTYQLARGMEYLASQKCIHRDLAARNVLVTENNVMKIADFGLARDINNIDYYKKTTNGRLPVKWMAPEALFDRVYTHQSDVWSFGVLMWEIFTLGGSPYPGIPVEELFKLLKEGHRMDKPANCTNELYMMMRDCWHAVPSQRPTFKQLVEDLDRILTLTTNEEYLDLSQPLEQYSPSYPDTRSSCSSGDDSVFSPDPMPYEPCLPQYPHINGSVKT
The mark [5] stands for this setting: read-out: FGFR1, wild-type un-phosphorylated FGFR1.
Setting [6] is: read-out: FGFR4, wild-type un-phosphorylated FGFR4, pre-incubated for 4 hours.
Setting [7] is: FGFR1, wild-type un-phosphorylated FGFR1.
The mark [8] stands for this setting: read-out: FGFR2, wild-type un-phosphorylated FGFR2, pre-incubated for 4 hours.

Chain of wild-type un-phosphorylated FGFR3 (P22607 23-806): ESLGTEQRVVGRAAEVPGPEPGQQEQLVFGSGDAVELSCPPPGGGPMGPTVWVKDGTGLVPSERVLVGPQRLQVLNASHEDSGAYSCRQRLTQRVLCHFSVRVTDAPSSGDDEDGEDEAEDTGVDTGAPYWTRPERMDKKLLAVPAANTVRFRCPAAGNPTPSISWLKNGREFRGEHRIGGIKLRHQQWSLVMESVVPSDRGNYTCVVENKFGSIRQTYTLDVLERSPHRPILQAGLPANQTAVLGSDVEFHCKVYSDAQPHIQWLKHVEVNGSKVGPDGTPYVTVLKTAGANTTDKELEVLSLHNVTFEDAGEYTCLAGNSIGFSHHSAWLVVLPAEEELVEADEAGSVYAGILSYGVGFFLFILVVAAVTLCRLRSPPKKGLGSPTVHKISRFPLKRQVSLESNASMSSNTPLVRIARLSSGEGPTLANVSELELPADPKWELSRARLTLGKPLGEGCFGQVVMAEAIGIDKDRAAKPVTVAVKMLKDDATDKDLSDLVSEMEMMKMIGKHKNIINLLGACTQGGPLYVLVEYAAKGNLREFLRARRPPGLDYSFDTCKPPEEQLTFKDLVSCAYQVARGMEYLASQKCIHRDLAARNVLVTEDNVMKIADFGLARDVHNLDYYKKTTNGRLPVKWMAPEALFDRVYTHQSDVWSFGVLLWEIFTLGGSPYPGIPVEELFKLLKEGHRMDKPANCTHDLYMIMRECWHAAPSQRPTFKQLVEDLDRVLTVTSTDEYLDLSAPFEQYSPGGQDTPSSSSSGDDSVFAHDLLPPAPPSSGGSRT

For the compound `COc1cc2[nH]nc(-c3ccc([C@@]45C[C@@H]4CN(CCO)C5)cc3)c2nc1-c1cccc2c1CCC2C#N` (stereo partly drawn) [Example 159, 4-(3-(4-((1R,5S)-3-(2-Hydroxyethyl)-3-azabicyclo[3.1.0]hexan-1-yl)phenyl)-6-methoxy-1H-pyrazolo[4,3-b]pyridin-5-yl)-2,3-dihydro-1H-indene-1-carbonitrile], the pIC50 was greater than 8.22 in assay [1], 7.40 to 8.22 in assay [2] (setting [5]), 7.40 to 8.22 in assay [3] (setting [6]) and greater than 8.22 in assay [4].
In the case of `COc1cc2[nH]nc(-c3ccc(C4CCN(C(=O)N5CCOCC5)C4)nc3)c2nc1-c1cccc2c1CCC2C#N` (single isomer, unassigned) [Example 184, 4-(6-Methoxy-3-(6-(1-(morpholine-4-carbonyl)pyrrolidin-3-yl)pyridin-3-yl)-1H-pyrazolo[4,3-b]pyridin-5-yl)-2,3-dihydro-1H-indene-1-carbonitrile], the pIC50 was greater than 8.22 in assay [1], 7.40 to 8.22 in assay [2] (setting [5]), 7.40 to 8.22 in assay [3] (setting [6]) and greater than 8.22 in assay [4].
On to `[2H]C1(n2cc(-c3n[nH]c4cc(OC)c(-c5cccc6c5CCC6C#N)nc34)cn2)CCN(C(=O)C2CCOCC2)CC1` (centres unmarked) [Example 167, 4-(6-Methoxy-3-(1-(1-(tetrahydro-2H-pyran-4-carbonyl)piperidin-4-yl-4-d)-1H-pyrazol-4-yl)-1H-pyrazolo[4,3-b]pyridin-5-yl)-2,3-dihydro-1H-indene-1-carbonitrile], for which the pIC50 in assay [1] was greater than 8.22; in assay [2] (setting [7]) it was 7.00 to 7.40; in assay [3], 7.00 to 7.40; in assay [4], greater than 8.22.
For the compound `COc1cc2[nH]nc(-c3cnn(C4CN(C(=O)N(C)C)C4)c3)c2nc1-c1cccc(C)c1C` [Example 72, 3-(4-(5-(2,3-Dimethylphenyl)-6-methoxy-1H-pyrazolo[4,3-b]pyridin-3-yl)-1H-pyrazol-1-yl)-N,N-dimethylazetidine-1-carboxamide], the pIC50 is greater than 8.22 in assay [1], 7.00 to 7.40 in assay [2] (setting [7]), 7.00 to 7.40 in assay [3] and greater than 8.22 in assay [4].
As for `COc1cc2[nH]nc(-c3ccc(CN4C[C@H]5C[C@@H]4CO5)nc3)c2nc1-c1cccc2c1CCC2` [Example 200, (1R,4R)-5-((5-(5-(2,3-Dihydro-1H-inden-4-yl)-6-methoxy-1H-pyrazolo[4,3-b]pyridin-3-yl)pyridin-2-yl)methyl)-2-oxa-5-azabicyclo[2.2.1]heptane], the pIC50 in assay [1] was greater than 8.22; in assay [2] (setting [7]) it was 7.00 to 7.40; in assay [3] it was 7.00 to 7.40; in assay [4], greater than 8.22.
`CCN1CCN(c2ccc(-c3n[nH]c4cc(OC)c(-c5cccc6c5CCC6)nc34)cc2)CC1` [Example 63, 5-(2,3-Dihydro-1H-inden-4-yl)-3-(4-(4-ethylpiperazin-1-yl)phenyl)-6-methoxy-1H-pyrazolo[4,3-b]pyridine]: the pIC50 in assay [1] is greater than 8.22; in assay [2] (setting [5]), 7.40 to 8.22; in assay [3] it was 7.00 to 7.40; in assay [4], greater than 8.22.
As to `COc1cc2[nH]nc(-c3cnn(C4CN(C(C)=O)C4)c3)c2nc1-c1cccc2c1CCC2` [Example 22, 1-(3-(4-(5-(2,3-Dihydro-1H-inden-4-yl)-6-methoxy-1H-pyrazolo[4,3-b]pyridin-3-yl)-1H-pyrazol-1-yl)azetidin-1-yl)ethan-1-one], the pIC50 in assay [1] is greater than 8.22; in assay [2] (setting [7]), 7.00 to 7.40; in assay [3], 7.00 to 7.40; in assay [4], greater than 8.22.
As for `COc1cc2[nH]nc(-c3ccc(C4(C#N)CCN(C(=O)CO)C4)nc3)c2nc1-c1cccc2c1CCC2` (centres unmarked) [Example 198, 3-(5-(5-(2,3-Dihydro-1H-inden-4-yl)-6-methoxy-1H-pyrazolo[4,3-b]pyridin-3-yl)pyridin-2-yl)-1-(2-hydroxyacetyl)pyrrolidine-3-carbonitrile], the pIC50 in assay [1] was greater than 8.22; in assay [2] (setting [5]) it was 7.40 to 8.22; in assay [3], 7.00 to 7.40; in assay [4], greater than 8.22.
Turning to `COc1cc2[nH]nc(-c3ccc(C4CCN(C(C)=O)CC4)nc3)c2nc1-c1cccc2c1CCC2C#N` (single isomer, unassigned) [Example 182, 4-(3-(6-(1-Acetylpiperidin-4-yl)pyridin-3-yl)-6-methoxy-1H-pyrazolo[4,3-b]pyridin-5-yl)-2,3-dihydro-1H-indene-1-carbonitrile], the pIC50 is greater than 8.22 in assay [1], 7.40 to 8.22 in assay [2] (setting [5]), 7.40 to 8.22 in assay [3] (setting [6]) and greater than 8.22 in assay [4].
`COc1cc2[nH]nc(-c3cnn(C)c3)c2nc1-c1cccc2c1OCC2` [Example 4, 5-(2,3-Dihydrobenzofuran-7-yl)-6-methoxy-3-(1-methyl-1H-pyrazol-4-yl)-1H-pyrazolo[4,3-b]pyridine]: the pIC50 in assay [1] was greater than 8.22; in assay [2] (setting [7]), less than 7.00; in assay [3], less than 7.00; in assay [4] (setting [8]), 7.40 to 8.22.
Regarding `COc1cc2[nH]nc(-c3ccc(C4CCC(O)CC4)nc3)c2nc1-c1cccc2c1CCC2C#N` (centres unmarked) [Example 113, 4-(3-(6-(4-Hydroxycyclohexyl)pyridin-3-yl)-6-methoxy-1H-pyrazolo[4,3-b]pyridin-5-yl)-2,3-dihydro-1H-indene-1-carbonitrile], the pIC50 was greater than 8.22 in assay [1], 7.40 to 8.22 in assay [2] (setting [5]), 7.00 to 7.40 in assay [3] and greater than 8.22 in assay [4].
As to `COc1cc2[nH]nc(-c3cnn([C@H]4CCN(C(=O)[C@H]5C[C@H](O)C5)C4)c3)c2nc1-c1cccc2c1CCC2` [Example 144, ((S)-3-(4-(5-(2,3-Dihydro-1H-inden-4-yl)-6-methoxy-1H-pyrazolo[4,3-b]pyridin-3-yl)-1H-pyrazol-1-yl)pyrrolidin-1-yl)((trans)-3-hydroxycyclobutyl)methanone], the pIC50 was greater than 8.22 in assay [1], 7.40 to 8.22 in assay [2] (setting [5]), 7.40 to 8.22 in assay [3] (setting [6]) and greater than 8.22 in assay [4].
In the case of `COCCOC(=O)N1CC(n2cc(-c3n[nH]c4cc(OC)c(-c5cccc6c5CCC6)nc34)cn2)C1` [Example 152, 2-Methoxyethyl 3-(4-(5-(2,3-dihydro-1H-inden-4-yl)-6-methoxy-1H-pyrazolo[4,3-b]pyridin-3-yl)-1H-pyrazol-1-yl)azetidine-1-carboxylate], the pIC50 in assay [1] was greater than 8.22; in assay [2] (setting [7]), 7.00 to 7.40; in assay [3], 7.00 to 7.40; in assay [4], greater than 8.22.
Turning to `COc1cc2[nH]nc(-c3ccc(C4CCC(NC(=O)[C@H](C)O)C4)nc3)c2nc1-c1cccc2c1CCC2` (stereo partly drawn) [Example 156, (2S)-N-(3-(5-(5-(2,3-Dihydro-1H-inden-4-yl)-6-methoxy-1H-pyrazolo[4,3-b]pyridin-3-yl)pyridin-2-yl)cyclopentyl)-2-hydroxypropanamid], the pIC50 in assay [1] was greater than 8.22; in assay [2] (setting [5]), 7.40 to 8.22; in assay [3] (setting [6]), 7.40 to 8.22; in assay [4], greater than 8.22.
Take `COc1cc2[nH]nc(-c3cnn(C)c3)c2nc1-c1cccc2c1CC(F)C2` (centres unmarked) [Example 84, 5-(2-Fluoro-2,3-dihydro-1H-inden-4-yl)-6-methoxy-3-(1-methyl-1H-pyrazol-4-yl)-1H-pyrazolo[4,3-b]pyridine]: the pIC50 in assay [1] was greater than 8.22; in assay [2] (setting [7]), 7.00 to 7.40; in assay [3] it was less than 7.00; in assay [4], greater than 8.22.
As for `COc1cc2[nH]nc(-c3cnn([C@H]4CCN(C(=O)[C@H]5COCCN5C)C4)c3)c2nc1-c1cccc2c1CCC2` [Example 138, ((S)-3-(4-(5-(2,3-Dihydro-1H-inden-4-yl)-6-methoxy-1H-pyrazolo[4,3-b]pyridin-3-yl)-1H-pyrazol-1-yl)pyrrolidin-1-yl)((R)-4-methylmorpholin-3-yl)methanone], the pIC50 in assay [1] is greater than 8.22; in assay [2] (setting [5]), 7.40 to 8.22; in assay [3], 7.00 to 7.40; in assay [4], greater than 8.22.
`CCN1CC[C@H]1C(=O)N1CC(n2cc(-c3n[nH]c4cc(OC)c(-c5cccc6c5CCC6)nc34)cn2)C1` [Example 140, (S)-(3-(4-(5-(2,3-dihydro-1H-inden-4-yl)-6-methoxy-1H-pyrazolo[4,3-b]pyridin-3-yl)-1H-pyrazol-1-yl)azetidin-1-yl)(1-ethylazetidin-2-yl)methanone]: the pIC50 was greater than 8.22 in assay [1], 7.40 to 8.22 in assay [2] (setting [5]), 7.00 to 7.40 in assay [3] and greater than 8.22 in assay [4].
For `COc1cc2[nH]nc(-c3cnn(C)c3)c2nc1-c1cccc2c1CC(O)C2` (single isomer, unassigned) [Example 10, 4-(6-Methoxy-3-(1-methyl-1H-pyrazol-4-yl)-1H-pyrazolo[4,3-b]pyridin-5-yl)-2,3-dihydro-1H-inden-2-ol], the pIC50 was greater than 8.22 in assay [1], 7.00 to 7.40 in assay [2] (setting [7]), less than 7.00 in assay [3] and 7.40 to 8.22 in assay [4] (setting [8]).
As to `COc1cc2[nH]nc(-c3cnn(C4CCN(C(C)=O)CC4)c3)c2nc1-c1cccc2c1CCC2C#N` (centres unmarked) [Example 112, 4-(3-(1-(1-Acetylpiperidin-4-yl)-1H-pyrazol-4-yl)-6-methoxy-1H-pyrazolo[4,3-b]pyridin-5-yl)-2,3-dihydro-1H-indene-1-carbonitrile], the pIC50 is greater than 8.22 in assay [1], 7.00 to 7.40 in assay [2] (setting [7]), 7.00 to 7.40 in assay [3] and greater than 8.22 in assay [4].
Turning to `COc1cc2[nH]nc(-c3ccc(C4CN(C(=O)CO)C4)nc3)c2nc1-c1cccc2c1CCC2` [Example 176, 1-(3-(5-(5-(2,3-Dihydro-1H-inden-4-yl)-6-methoxy-1H-pyrazolo[4,3-b]pyridin-3-yl)pyridin-2-yl)azetidin-1-yl)-2-hydroxyethan-1-one], the pIC50 in assay [1] was greater than 8.22; in assay [2] (setting [5]), 7.40 to 8.22; in assay [3] it was 7.00 to 7.40; in assay [4] it was greater than 8.22.
